Results reported in paper PMC8318231, “Rate-of-Kill (RoK) assays to triage large compound sets for Chagas disease drug discovery: Application to GSK Chagas Box” (PLoS Neglected Tropical Diseases, 2021).

Tests used:
[1] = test system: T. cruzi intracellular amastigotes in H9c2 cells; experiment: Rate-of-Kill (RoK) high-content imaging assay, amastigotes per cell (AM/CELL) and curve descriptors; type: cell-based, Trypanosoma cruzi; set-up: key to ME_24h / ME_48h / ME_72h: % reduction in parasite burden (cidal response); t50pct_MCC50 / t50pct_Cmax: unit not given here; settings: for ME_24h: 24h; for ME_48h: 48h; for ME_72h: 72h; for tlag_Cmax / t50pct_Cmax / t50%_Cmax: at Cmax; for ME_24h (%): maximum effect at 24 h; for ME_24h (%) / ME_48h (%) / ME_72h (%): RoK assay; for ME_48h (%): maximum effect at 48 h; for ME_72h (%): maximum effect at 72 h; for ME 24h (maximum effect at 24 hours, intracellular amastigotes): maximum percentage of parasite burden reduction reached by any concentration
How it was run: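 Readouts at each time point are amastigotes per cell and host nuclei count (cytotoxicity), from DRAQ5 high-content imaging. Infection: trypomastigotes on H9c2 at MOI 8 for 18 h. Dosing was 5 μM single point or 11 points, 1/3 steps from 50 μM. Effect scaled between 4 h infected and uninfected controls.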

TcCYP51 = settings: formerly reported; cited from earlier work

SMILES | ME_24h ([1]; figure 5) | ME_48h ([1]; figure 5) | ME_72h ([1]; figure 5) | MCC50 ([1]; RoK curve descriptor) [µM] | MCCE ([1]; RoK curve descriptor) [µM] | AM/CELL NORM ([1]; Time 4, sheet figure 4 A) | AM/CELL NORM ([1]; Time 24, sheet figure 4 A) | AM/CELL NORM ([1]; Time 48, sheet figure 4 A) | AM/CELL NORM ([1]; Time 72, sheet figure 4 A) | tlag_Cmax [1] [h] | t50pct_Cmax ([1]; figure 5) | tlag_Cmax ([1]; figure 5) | t50pct_MCC50 ([1]; at MCC50, figure 5) | tlag_MCC50 ([1]; at MCC50, figure 5) | MCCE ([1]; figure 5) | ME_24h (%) [1] [%] | ME_48h (%) [1] [%] | ME_72h (%) [1] [%] | ME 24h (maximum effect at 24 hours, intracellular amastigotes) [1] [%] | CYP51 pIC50 (TcCYP51) | other results
CS(=O)(=O)c1cccc(-c2cnc(N)c3c(-c4ccc(CO)cc4)csc23)c1.O=C(O)C(F)(F)F [TCMDC-143410] | 16.9023 | 39.285 | 41.8133 | 1.9 | 1.2 | 25.2958 | 6.562 | -1.837 | 13.104 | 36.0 | 72 | 36 | 72 | 38 | 1.235 | 16.9 | 39.3 | 41.8 | 40.1676 | 5.5 | t50%_MCC50 ([1]; at MCC50): 72.0 h; tlag_MCC50 ([1]; at MCC50): 4.0 h; MCC50 ([1]; figure 5, in µM): 25.9259
O=C(NCCc1ccccn1)C(c1cn[nH]c1)N1CCN(c2ccc(Cl)c(Cl)c2)CC1 (stereo not drawn) [TCMDC-143411] | -24.7459 | 74.9666 | 99.2836 | 16.7 | 0.2 | 6.745 | -24.7459 | 74.9666 | 99.2836 | 24.0 | 48 | 24 | 72 | 24 | 0.2058 | -24.8 | 75.0 | 99.3 | -24.7459 | 6.9 | t50%_Cmax [1]: 48.0 h; t50%_MCC50 ([1]; at MCC50): 72.0 h; tlag_MCC50 ([1]; at MCC50): 24.0 h; MCC50 ([1]; figure 5, in µM): 16.6667
COc1cc(-c2nc(N3CCOCC3)sc2-c2ccnc(NC3CCOCC3)n2)ccc1Cl.O=C(O)C(F)(F)F [TCMDC-143414] | -30.3967 | 4.32 | 10.4319 |  | 0.34 | -8.885 | -7.51 | 27.1663 | 39.4258 | 14.0 | 72 | 14 | 72 | 72 | 0.3429 | -30.4 | 4.3 | 10.4 | -7.51 | < 4 | MCC50 ([1]; figure 5): 50 µM
CC(=Cc1ccccc1)CN1CCC(=O)N(Cc2cccnc2)CC1 [TCMDC-143421] | -70.7645 | -276.175 | -1.901 |  | 1.9 | -0.3924 | -98.2079 | -300.018 | -16.9527 | 48.0 | 72 | 48 | 72 | 72 | 1.852 | -70.8 | -276.2 | -1.9 | -70.7645 | 7 | MCC50 ([1]; figure 5): 50 µM
CC(C)Oc1cccc(N2CCC(C(=O)N3CCCN(C(C)C)CC3)CC2)c1.Cl [TCMDC-143432] | -31.9347 | 48.3783 | 79.9841 | 1.9 | 1.2 | -8.446 | -20.4309 | 59.253 | 56.8532 | 24.0 | 60 | 24 | 72 | 24 | 1.235 | -31.9 | 48.4 | 80.0 | -15.8852 | < 4 | t50%_Cmax [1]: 60.0 h; t50%_MCC50 ([1]; at MCC50): 72.0 h; tlag_MCC50 ([1]; at MCC50): 24.0 h; MCC50 ([1]; figure 5, in µM): 1.852
CCN(Cc1ccncc1)Cc1ccc(NC(=O)c2cc(-c3ccc(F)cc3)n[nH]2)cc1 [TCMDC-143433] | -248.551 | -140.579 | 30.4902 |  | 0.2 | 7.09 | -279.989 | -140.579 | 25.9601 | 24.0 | 72 | 24 | 72 | 72 | 0.2058 | -248.6 | -140.6 | 30.5 | -248.551 | 7.1 | MCC50 ([1]; figure 5): 50 µM
COc1cccc(CCNC(=O)C(c2cn[nH]c2)N2CCN(c3ccc(Cl)cc3)CC2)c1 (stereo not drawn) [TCMDC-143434] | 51.5158 | 102.276 | 117.751 | 5.6 | 0.07 | 2.576 | 51.5158 | 102.276 | 117.751 | 4.0 | 24 | 4 | 72 | 24 | 0.06859 | 51.5 | 102.3 | 117.8 | 51.5158 | 7.2 | t50%_Cmax [1]: 24.0 h; t50%_MCC50 ([1]; at MCC50): 72.0 h; tlag_MCC50 ([1]; at MCC50): 24.0 h; MCC50 ([1]; figure 5, in µM): 5.556
CC(C)c1cc(C(=O)N2CCCC(c3cc4ncccc4[nH]3)C2)on1 (stereo not drawn) [TCMDC-143439] | 43.352 | 76.8723 | 68.3635 | 16.7 | 1.0 | 3.622 | 43.352 | 76.8723 | 68.3635 | 4.0 | 48 | 4 | 48 | 4 | 1.852 | 63.1 | 82.0 | 79.3 | 82.7741 | 4.3 | t50%_Cmax [1]: 48.0 h; t50%_MCC50 ([1]; at MCC50): 60.0 h; tlag_MCC50 ([1]; at MCC50): 14.0 h; MCC50 ([1]; figure 5, in µM): 16.6667
Fc1ccc(OC2CC(NCc3cccc4cn[nH]c34)C2)cc1C(F)(F)F (stereo not drawn) [TCMDC-143455] | 25.577 | 44.8387 | 61.893 | 5.6 | 0.2 |  |  |  |  | 24.0 | 72 | 24 | 72 | 24 | 0.2058 | 25.6 | 44.8 | 61.9 | 107.523 | 6.9 | AM/CELL NORM ([1]; Time 4, figure 4 A): 30.3216; AM/CELL NORM ([1]; Time 24, figure 4 A): 25.577; AM/CELL NORM ([1]; Time 48, figure 4 A): 44.8387; AM/CELL NORM ([1]; Time 72, figure 4 A): 61.893; t50%_Cmax [1]: 72.0 h; t50%_MCC50 ([1]; at MCC50): 72.0 h; tlag_MCC50 ([1]; at MCC50): 24.0 h; MCC50 ([1]; figure 5, in µM): 5.556
CNc1c(C(N)=O)c(-c2ccc3scnc3c2)nn1CC(F)(F)F.O=C(O)C(F)(F)F [TCMDC-143463] | -5.4236 | -24.264 | 4.63 |  | 0.2 | 20.0861 | -5.743 | -19.2942 | 13.2045 | 48.0 | 72 | 48 | 72 | 72 | 0.2058 | -5.4 | -24.3 | 4.6 | -5.104 | < 4 | MCC50 ([1]; figure 5): 50 µM
OCCCNc1nc(Nc2ccncc2)nc2ccccc12 [TCMDC-143476] | -15.4195 | -2.754 | -23.113 |  | 0.6 | -9.731 | -26.5514 | -22.3232 | -41.9873 | 24.0 | 72 | 24 | 72 | 72 | 0.6173 | -15.4 | -2.8 | -23.1 | -15.4195 | < 4 | MCC50 ([1]; figure 5): 50 µM
